{
  "source": "patent US10919902B2",
  "about": "“Hetero-halo inhibitors of histone deacetylase” (Alkermes, Inc., priority 2015, dated 2021)",
  "data": [
    {"tested_on": "SH-SY5Y cells", "experiment": "Cell assay: SH-SY5Y cells, HDAC-Glo 2 reagent", "assay_type": "cell-based", "details": "Homo sapiens, 5 h incubation, CI-994 at 100 uM = 100% inhibition", "protocol": "SH-SY5Y cells (Sigma) were cultured in Eagle's Modified Essential Medium supplemented with 10% fetal bovine serum and pen/strep. Twenty-four hours prior to compound dosing 20 uL of cells were plated in white 384 well plates at a density of 1,500 cells/well. Compounds were serially diluted in neat DMSO and then diluted 1:100 v/v into media without FBS and mixed. Media was removed from the plated cells and the diluted compounds in serum free media (1% v/v final DMSO) were added and incubated at 37° C. for five hours. Ten uL of HDAC-Glo 2 reagent with 0.1% Triton X-100 was then added, the plate was mixed and allowed to develop at room temperature for 100 minutes. Plates were then read with a Spectramax LMax luminometer employing a 0.4 s integration time. Dose response curves were constructed with normalized data where CI-994 at 100 uM was defined as 100% inhibition and DMSO alone as 0% inhibition.", "units": {"EC50": "nM"}, "values": [
      {"smiles": "CN1CCC(N2C[C@@H]3C(C(=O)Nc4nc(-c5ccc(F)cc5)ccc4N)[C@@H]3C2)CC1", "note": "(stereo partly drawn) [Compound 263]", "EC50": "500 to 5000"}
    ]},
    {"target": "recombinant human HDACs (Homo sapiens)", "experiment": "HDAC enzymatic assay", "assay_type": "biochemical", "details": "5 nM HDAC enzyme, 5 h pre-incubation, 17 h reaction at 25° C.; isoform not given", "protocol": "(§1) All recombinant human HDACs were purchased from BPS Bioscience. The substrate, FAM-TSRHK(AC)KL-CONH, was synthesized at NanoSyn. Final assay reactions contained 100 mM HEPES (pH 7.5), 50 mM KCl, 0.1% BSA, 0.01% Triton X-100, 1% DMSO, 1 uM substrate and 5 nM HDAC enzyme. Enzyme and compounds were pre-incubated at 25° C. for 5 hours and reactions were initiated by addition of substrate. 10 uL reactions were incubated for 17 hours at 25° C. and terminated by the addition of 40 uL of buffer containing 100 mM HEPES (pH 7.5), 0.1% BSA, 0.01% Triton X-100 and 0.05% SDS. Substrate and product peptides present in each sample were separated electrophoretically using the LabChip 3000 capillary electrophoresis instrument. Change in the relative fluorescence intensity of the substrate and product peaks reflects enzyme activity. Reaction progress was determined as the product to sum ratio (PSR):P/(S+P), where P is the peak height of the product peptide and S is the peak height of the substrate peptide. Reactions were performed in duplicate at 12 concentrations, (3× serial dilutions starting at 30 uM). IC50 values were calculated using a 4 Parameter Logistic Model.", "units": {"IC50": "nM"}, "values": [
      {"smiles": "Cn1cc2c(n1)CN(C(=O)Nc1nc(-c3ccc(F)cc3)ccc1N)C2", "note": "[Compound 257]", "IC50": "100 to 500"},
      {"smiles": "COCc1cc2c(cn1)CN(C(=O)Nc1nc(-c3ccc(F)cc3)ccc1N)C2", "note": "[Compound 243]", "IC50": "100 to 500"}
    ]},
    {"target": "recombinant human HDACs (Homo sapiens)", "experiment": "HDAC enzymatic assay", "assay_type": "biochemical", "details": "5 nM HDAC enzyme, 5 h pre-incubation, 17 h reaction at 25° C.; isoform not given; read-out: IC50", "protocol": "as §1", "units": {"IC50": "nM"}, "values": [
      {"smiles": "CN1CCC(N2C[C@@H]3C(C(=O)Nc4nc(-c5ccc(F)cc5)ccc4N)[C@@H]3C2)CC1", "note": "(stereo partly drawn) [Compound 263]", "IC50": "500 to 5000"},
      {"smiles": "Nc1ccc(-c2ccco2)nc1NC(=O)N1Cc2ccncc2C1", "note": "[Compound 372]", "IC50": "500 to 5000"},
      {"smiles": "Nc1ccc(-c2cccnc2)nc1NC(=O)N1CCCC1", "note": "[Compound 221]", "IC50": "> 5000"},
      {"smiles": "CN1CCC(c2ccc3c(c2)CN(C(=O)Nc2nn(-c4ccccc4)cc2N)C3)CC1", "note": "[Compound 383]", "IC50": "100 to 500"},
      {"smiles": "CN1CC(C(=O)Nc2nc(-c3ccc(F)cc3)ccc2N)C1", "note": "[Compound 204]", "IC50": "> 5000"},
      {"smiles": "Nc1cn(-c2ccccc2)nc1NC(=O)N1CC2COCC2C1", "note": "(stereo not drawn) [Compound 382]", "IC50": "> 5000"},
      {"smiles": "Nc1ccc(-c2cccnc2)nc1NC(=O)N1Cc2ccc(CO)cc2C1", "note": "[Compound 395]", "IC50": "> 5000"},
      {"smiles": "CN1CCC(c2cc3c(cn2)CN(C(=O)Nc2nc(-c4ccc(F)cc4)ccc2N)C3)CC1", "note": "[Compound 149]", "IC50": "100 to 500"},
      {"smiles": "COc1cccc(CN2CCCC3(CCN(C(=O)Nc4nc(-c5ccc(F)cc5)ccc4N)C3)C2)c1", "note": "(stereo not drawn) [Compound 222]", "IC50": "> 5000"},
      {"smiles": "CN1CCN(Cc2ccc3c(c2)CN(C(=O)Nc2nc(-c4ccc(F)cc4)ccc2N)C3)CC1", "note": "[Compound 367]", "IC50": "100 to 500"},
      {"smiles": "CN(C)Cc1ccc2c(c1)CN(C(=O)Nc1nc(-c3ccc(F)cc3)ccc1N)C2", "note": "[Compound 371]", "IC50": "100 to 500"},
      {"smiles": "CN1CCC(c2cnc3c(c2)CN(C(=O)Nc2nc(-c4cccs4)ccc2N)C3)CC1", "note": "[Compound 250]", "IC50": "100 to 500"},
      {"smiles": "CN(C)Cc1cc2c(cn1)CN(C(=O)Nc1nc(-c3ccc(F)cc3)ccc1N)C2", "note": "[Compound 162]", "IC50": "100 to 500"},
      {"smiles": "CN(C)[C@H]1[C@@H]2CN(C(=O)Nc3nc(-c4ccc(F)cc4)ccc3N)C[C@@H]21", "note": "[Compound 242]", "IC50": "> 5000"},
      {"smiles": "CN1CCN(Cc2cnc3c(c2)CN(C(=O)Nc2nc(-c4ccc(F)cc4)ccc2N)C3)CC1", "note": "[Compound 168]", "IC50": "100 to 500"},
      {"smiles": "Nc1ccc(-c2ccc(F)cc2)nc1NC(=O)N1CCC(C(F)(F)F)C1", "note": "(stereo not drawn) [Compound 390]", "IC50": "500 to 5000"},
      {"smiles": "CC(=O)N1CCC(C(=O)Nc2nn(-c3ccccc3)cc2N)CC1", "note": "[Compound 358]", "IC50": "> 5000"},
      {"smiles": "CN1CC(Cn2cc3c(n2)CN(C(=O)Nc2nc(-c4ccc(F)cc4)ccc2N)C3)C1", "note": "[Compound 245]", "IC50": "100 to 500"},
      {"smiles": "Nc1ccc(-c2ccco2)nc1NC(=O)N1CC2CN(CCF)CC2C1", "note": "(stereo not drawn) [Compound 174]", "IC50": "> 5000"},
      {"smiles": "CN1CC(N2CC3CN(C(=O)Nc4nc(-c5ccc(F)cc5)ccc4N)CC3C2)C1", "note": "(stereo not drawn) [Compound 152]", "IC50": "500 to 5000"},
      {"smiles": "Cc1cc(F)ccc1-c1ccc(N)c(NC(=O)N2Cc3cnc(CN(C)C)cc3C2)n1", "note": "[Compound 261]", "IC50": "> 5000"},
      {"smiles": "Nc1ccc(-c2ccc(F)cc2)nc1NC(=O)N1CC2CC(N3CCOCC3)CC2C1", "note": "(stereo not drawn) [Compound 181]", "IC50": "> 5000"},
      {"smiles": "Nc1ccc(-n2cccn2)nc1NC(=O)N1CC2CC(N3CC(F)C3)CC2C1", "note": "(stereo not drawn) [Compound 190]", "IC50": "> 5000"},
      {"smiles": "Nc1ccc(-c2ccccc2)nc1NC(=O)N1CC2CN(C3COC3)CC2C1", "note": "(stereo not drawn) [Compound 199]", "IC50": "> 5000"},
      {"smiles": "Nc1ccc(-c2ccco2)nc1NC(=O)C1CN(Cc2ccccc2)C1", "note": "[Compound 198]", "IC50": "> 5000"},
      {"smiles": "Nc1ccc(-c2cccs2)nc1NC(=O)N1Cc2ccc(CN3CCCC3)cc2C1", "note": "[Compound 410]", "IC50": "100 to 500"},
      {"smiles": "Nc1cn(-c2ccccc2)nc1NC(=O)N1CC2CCCC2C1", "note": "(stereo not drawn) [Compound 384]", "IC50": "> 5000"},
      {"smiles": "Cn1cc(CN2CCC3(CC2)CCN(C(=O)Nc2nc(-c4cccnc4)ccc2N)C3)cn1", "note": "[Compound 215]", "IC50": "> 5000"},
      {"smiles": "CN1CC(CN2C[C@@H]3[C@H](C2)[C@H]3C(=O)Nc2nc(-c3ccc(F)cc3)ccc2N)C1", "note": "[Compound 268]", "IC50": "> 5000"},
      {"smiles": "COc1cc2c(cn1)CN(C(=O)Nc1nc(-c3ccc(F)cc3)ccc1N)C2", "note": "[Compound 260]", "IC50": "100 to 500"},
      {"smiles": "CN(C)Cc1ccc2c(c1)CN(C(=O)Nc1nc(-c3ccco3)ccc1N)C2", "note": "[Compound 365]", "IC50": "100 to 500"},
      {"smiles": "Nc1ccc(-c2ccc(F)cc2)nc1NC(=O)c1nc2c(s1)CCN(CCF)C2", "note": "[Compound 165]", "IC50": "100 to 500"},
      {"smiles": "Nc1ccc(-c2ccc(F)cc2)nc1NC(=O)N1Cc2cc(N3CCOCC3)cnc2C1", "note": "[Compound 158]", "IC50": "100 to 500"}
    ]}
  ]
}
